Source: US9133207B2, “Tetrandrine derivatives with substituted 5-carbon, preparation method and use thereof” (Hangzhou Bensheng Pharmaceutical Co., Ltd., priority 2011, dated 2015)
Converted amounts (≈) assume the structure as drawn.

Columns and labels:
[1] = test system: Huh7 (human liver cancer cell); test: Solid tumor cell growth inhibition, MTT, 72 h (Example 7); format: cell-based; settings: Homo sapiens; 72 h, MTT, Huh-7
Outline: (§1)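 Viability (%) relative to compound-free controls (100%) comes from MTT measurement following 72 h drug exposure at 37 °C, 5% CO2. Seeding density: 4000 cells/well, 24 h before dosing.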

[2] = test system: U87 MG (malignant glioma cell); test: as above; format: cell-based; settings: Homo sapiens, U-87 MG
Outline: as §1

[3] = test system: CNE (nasopharyngeal carcinoma cell); test: as above; format: cell-based; settings: Homo sapiens
Outline: as §1

[4] = test system: Hela (human cervical cancer cell); test: as above; format: cell-based; settings: Homo sapiens; 72 h, MTT, Hela
Outline: as §1

[5] = test system: RKO (human colon adenocarcinoma cell); test: as above; format: cell-based; settings: Homo sapiens; 72 h, MTT, RKO
Outline: as §1

[6] = test system: SK-OV-3 (ovarian cancer cell); test: as above; format: cell-based; settings: Homo sapiens
Outline: as §1

[7] = test system: A549 (human lung cancer); test: as above; format: cell-based; settings: Homo sapiens; 72 h, MTT, A549
Outline: as §1

[8] = test system: MGC 803 (human gastric cancer cell); test: as above; format: cell-based; settings: Homo sapiens
Outline: as §1

[9] = test system: Becap37 (human breast cancer cell); test: as above; format: cell-based; settings: Homo sapiens; 72 h, MTT, Becap-37
Outline: as §1

[10] = test system: RPMI8226 (multiple myeloma); test: Multiple myeloma cell growth inhibition, MTT, 72 h (Example 6); format: cell-based, human; settings: Homo sapiens, RPMI-8226; 72 h, MTT, RPMI8226
Outline: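 Viability was read by MTT after 72 h of compound exposure at 37 °C, 5% CO2. Each well held 6000 RPMI8226 cells in 1640 medium containing 10% fetal bovine serum, with derivatives added at various concentrations.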

[11] = test system: MG63 (osteosarcoma); test: Solid tumor cell growth inhibition, MTT, 72 h (Example 7); format: cell-based, human; settings: Homo sapiens; 72 h, MTT, MG-63
Outline: as §1

[12] = test system: Hep-2 (laryngeal carcinoma); test: as above; format: cell-based, human; settings: Homo sapiens; 72 h, MTT, Hep 2
Outline: as §1

[13] = test system: CaES-17 (esophageal cancer cell); test: as above; format: cell-based, human; settings: Homo sapiens, CaEs17; 72 h, MTT, CAES-17
Outline: as §1

[14] = test system: PANC-1 (pancreatic cancer); test: as above; format: cell-based, human; settings: Homo sapiens; 72 h, MTT, PANC-1
Outline: as §1

[15] = test system: PC-3 (prostate cancer); test: as above; format: cell-based, human; settings: Homo sapiens; 72 h, MTT, PC-3
Outline: as §1

[16] = test system: Kasumi-1 (acute myeloid leukemia M2 type, AML-M2); test: Leukemia cell growth inhibition, MTT, 72 h (Example 5); format: cell-based, human; settings: Homo sapiens, Kasumi 1
Outline: (§2)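 RPMI 1640 + 10% FBS, 6000 cells/well; tetrandrine derivatives at various concentrations; 37° C, 5% CO2, 72 h; viability by MTT.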

[17] = test system: H9 (acute lymphoblastic leukemia, ALL); test: as above; format: cell-based, human; settings: Homo sapiens; 72 h, MTT
Outline: as §2

[18] = test system: NB4 (acute promyelocytic leukemia, AML); test: as above; format: cell-based, human; settings: Homo sapiens; 72 h, MTT
Outline: as §2

[19] = test system: K562/adr (drug-resistant, chronic myeloid leukemia, CML); test: as above; format: cell-based, human; settings: Homo sapiens, K562/Adr; 72 h, MTT
Outline: as §2

[20] = test system: Jurkat (acute lymphoblastic leukemia, ALL); test: as above; format: cell-based, human; settings: Homo sapiens, Jurkat; 72 h, MTT
Outline: as §2

| SMILES | IC50 [1] | IC90 [1] | IC50 [2] | IC90 [2] | IC50 [3] | IC90 [3] | IC50 [4] | IC90 [4] | IC50 [5] | IC90 [5] | IC50 [6] | IC90 [6] | IC50 [7] | IC90 [7] | IC50 [8] | IC90 [8] | IC50 [9] | IC90 [9] | IC50 [10] | IC90 [10] | also measured |
| --- | --- | --- | --- | --- | --- | --- | --- | --- | --- | --- | --- | --- | --- | --- | --- | --- | --- | --- | --- | --- | --- |
| COc1ccc2cc1Oc1ccc(cc1)C[C@H]1c3cc(c(OC)cc3CCN1C)Oc1c(OC)c(OC)c(COC(=O)c3ccco3)c3c1[C@H](C2)N(C)CC3 [BS-TE-216] | 2.66 µg/mL (≈ 3.56 µM) | 4.71 µg/mL (≈ 6.31 µM) | 1.24 µg/mL (≈ 1.66 µM) | 3.74 µg/mL (≈ 5.01 µM) | 3.86 µg/mL (≈ 5.17 µM) | 13.3 µg/mL (≈ 17.8 µM) | 3.82 µg/mL (≈ 5.11 µM) | 10.8 µg/mL (≈ 14.4 µM) | 2.21 µg/mL (≈ 2.96 µM) | 4.67 µg/mL (≈ 6.25 µM) | 7 µg/mL (≈ 9.37 µM) | > 16 µg/mL | 8.6 µg/mL (≈ 11.5 µM) | > 16 µg/mL | 2.51 µg/mL (≈ 3.36 µM) | 4 µg/mL (≈ 5.36 µM) | 5.8 µg/mL (≈ 7.77 µM) | 13 µg/mL (≈ 17.4 µM) | 0.54 µg/mL (≈ 0.723 µM) | 3.14 µg/mL (≈ 4.2 µM) | IC50 [11]: 4.5 µg/mL (≈ 6.03 µM); IC90 [11]: 8.8 µg/mL (≈ 11.8 µM); IC50 [12]: 5.42 µg/mL (≈ 7.26 µM); IC90 [12]: 16 µg/mL (≈ 21.4 µM); IC50 [13]: 5.36 µg/mL (≈ 7.18 µM); IC90 [13]: 29.9 µg/mL (≈ 40 µM); IC50 [14]: 15.8 µg/mL (≈ 21.1 µM); IC90 [14]: > 16 µg/mL; IC50 [15]: 4.11 µg/mL (≈ 5.5 µM); IC90 [15]: 7.84 µg/mL (≈ 10.5 µM); IC50 [16]: 3.15 µg/mL (≈ 4.22 µM); IC90 [16]: 8.98 µg/mL (≈ 12 µM); IC50 [17]: 2.53 µg/mL (≈ 3.39 µM); IC90 [17]: 7.29 µg/mL (≈ 9.76 µM); IC50 [18]: 1.4 µg/mL (≈ 1.87 µM); IC90 [18]: 2 µg/mL (≈ 2.68 µM); IC50 [19]: 3.06 µg/mL (≈ 4.1 µM); IC90 [19]: 16 µg/mL (≈ 21.4 µM); IC50 [20]: 2.52 µg/mL (≈ 3.37 µM); IC90 [20]: 8.03 µg/mL (≈ 10.8 µM) |
| CCN1CCN(Cc2c3c4c(c(OC)c2OC)Oc2cc5c(cc2OC)CCN(C)[C@H]5Cc2ccc(cc2)Oc2cc(ccc2OC)C[C@@H]4N(C)CC3)CC1 [BS-TE-342] | 1.31 µg/mL (≈ 1.75 µM) | 2.46 µg/mL (≈ 3.28 µM) | 0.3 µg/mL (≈ 0.401 µM) | 1.16 µg/mL (≈ 1.55 µM) | 1.6 µg/mL (≈ 2.14 µM) | 3.7 µg/mL (≈ 4.94 µM) | 1.69 µg/mL (≈ 2.26 µM) | 4.1 µg/mL (≈ 5.47 µM) | 0.69 µg/mL (≈ 0.921 µM) | 1.75 µg/mL (≈ 2.34 µM) | 2 µg/mL (≈ 2.67 µM) | > 16 µg/mL | 3.2 µg/mL (≈ 4.27 µM) | 16 µg/mL (≈ 21.4 µM) | 1.38 µg/mL (≈ 1.84 µM) | 6.55 µg/mL (≈ 8.75 µM) | 1.1 µg/mL (≈ 1.47 µM) | 4.5 µg/mL (≈ 6.01 µM) | 0.006 µg/mL (≈ 0.00801 µM) | 0.45 µg/mL (≈ 0.601 µM) | IC50 [11]: 0.9 µg/mL (≈ 1.2 µM); IC90 [11]: 1.9 µg/mL (≈ 2.54 µM); IC50 [12]: 1.86 µg/mL (≈ 2.48 µM); IC90 [12]: 7.19 µg/mL (≈ 9.6 µM); IC50 [13]: 2.21 µg/mL (≈ 2.95 µM); IC90 [13]: 12.4 µg/mL (≈ 16.5 µM); IC50 [14]: 1.92 µg/mL (≈ 2.56 µM); IC90 [14]: 6.84 µg/mL (≈ 9.13 µM); IC50 [15]: 1.79 µg/mL (≈ 2.39 µM); IC90 [15]: 2.4 µg/mL (≈ 3.2 µM); IC50 [16]: 0.75 µg/mL (≈ 1 µM); IC90 [16]: 3.1 µg/mL (≈ 4.14 µM); IC50 [17]: 1.11 µg/mL (≈ 1.48 µM); IC90 [17]: 2.32 µg/mL (≈ 3.1 µM); IC50 [18]: 0.6 µg/mL (≈ 0.801 µM); IC90 [18]: 1.6 µg/mL (≈ 2.14 µM); IC50 [19]: 0.55 µg/mL (≈ 0.734 µM); IC90 [19]: 2.15 µg/mL (≈ 2.87 µM); IC50 [20]: 0.8 µg/mL (≈ 1.07 µM); IC90 [20]: 4.05 µg/mL (≈ 5.41 µM) |
